Measurements: patent US20180155737A1, “METHOD FOR MODULATING PLANT ROOT ARCHITECTURE” (priority 2012, published 2018)
Entries after “also recorded” stand apart in the source; their conditions may differ. Square brackets hold non-standard residues; d marks the D form. Ends that are not written are not given here. Hyp = O=C(O)[C@@H]1C[C@@H](O)CN1

Columns and labels:
M. truncatula roots = assay: Exogenous application of synthetic RAR peptides to M. truncatula roots (lateral roots, CCP sites/bumps, root growth); format: in vivo, Medicago truncatula; conditions: for Periodic bump (CCP site) formation: synthetic peptide applied to roots
Experimental: Seeds of M. truncatula cv Jemalong genotype A17 wild-type and M. truncatula 2HA line carrying either GH3 promoter-GUS reporter fusion gene (GH3:GUS) were grown under standard conditions (Holmes P, Goffard N, Weiller G F, Rolfe B G, & Imin N (2008), “Transcriptional profiling of Medicago truncatula meristematic root cells”, BMC Plant Biol 8:21).
The RAR peptides were synthesized at the Biomolecular Resource Facility, The Australian National University. The 15 amino acid (aa) peptides corresponding to the conserved domains of MtRAR1 (AFQHypTTPGNSHypGVGH and […]ypGVGH, where Hyp indicates hydroxy proline residue) and M. hapla MhRAR2 (AFRHypTAPGHSHypGVGH) were synthesized and validated as previously described in Djordjevic M A. et al. (2011), “Border sequences of Medicago truncatula CLE36 are specifically cleaved by endoproteases common to the extracellular fluids of Medicago and soybean”. J Exp Bot 62(13):4649-4659. The root length of wild-type plants was measured four days after transfer to Fåhraeus-medium containing the synthetic peptide. For the hormone assays, A17 plants were grown on Fåhraeus-medium for 10 days before transferring to Fåhraeus-medium containing 10^−6 M of the respective phytohormones; 1-aminocyclopropant-1-carboxylic acid (ACC), 6-benzylaminopurine (BAP), gibberallic acid (GA), synthetic analog of strigolactone (GR24), methyljasmonate (MeJA) and 1-naphthaleneacetic acid (NAA).

[1] = tested on: M. truncatula root nodulation by S. meliloti; assay: Nodulation with S. meliloti of peptide-treated M. truncatula plants; format: in vivo, Medicago truncatula
From the text: The 3-weeks old transformed hairy-roots plants were first transferred to a modified Fahraeus media without […] and kanamycin to starve the plants of nitrogen for 4 days. Inoculation with Sinorhizobium meliloti was done as described in Saur I M, Oakes M, Djordjevic M A, & Imin N (2011), “Crosstalk between the nodulation signaling pathway and the autoregulation of modulation in Medicago truncatula”, New Phytol 190(4):[…].
(§1) (b) partial nitrate tolerance of nodule development induced by WSM1022 on MtRAR1 over-expressing plants. Three weeks old composite plants were inoculated and scored two weeks post inoculation. N≥30. student's t-test; *; P<0.05; **; P<0.01; ***; P<0.001. (e) Acetylene reduction assay. MtRAR1 treated (1 μM) and non treated wild-type plants grown in Fåhraeus medium were harvested at 2 week post inoculation by S. meliloti WSM1022. Nitrogenase activity was calculated from peak areas of samples relative to acetylene and ethylene standards to obtain nmoles ethylene/min. N≥3, student's t-test; *: P<0.05; **: P<0.01. Error bars indicate SE. (d) Inoculation of plants with performed CCPs led to root nodule formation at CCP sites at 25 mM KNO3. Arrow head: CCP sites: Arrows: nodules. […] Scale bar: 100 μm. Plants were grown at 20° C.
FIG. 32 M. truncatula plants were grown in 0.8% agar-containing plates supplemented with F media with or without MtRAR1 peptide. Five-day old seedlings were inoculated with S. meliloti strain WSM1022 and further grown for two mom weeks. MtRAR1 Domain 1: AFQ(P)TTPGNS(P)GVGH: MtRAR1 Domain 1 with G−>A transition: AFQ(P)TTPANS(P)GVGH. (P) is hydroxylproline and the altered amino acid is underlined.

[2] = tested on: microtom tomato seedlings; assay: Plate assay, lateral root formation on microtom tomato seedlings; format: in vivo; conditions: 1 μM peptide
Experimental: The plants were grown so 0.8% agar-containing plates supplemented with F media with or without peptides for two weeks. The media contained 5 mM KNO3. MtRAR1 peptide: […] where (P) is hydroxyproline. Students' t-test, **: P<0.01; N>12. Error bars represent SE.
The plants were grows in 0.8% agar-containing plates supplemented with F media with or without peptides for two weeks. The medium contained 5 mM KNO3. MtRAR1 peptide: FQ(P)TTPGNS(P)GVGH where (P) is hydroxyproline.
Primary root length was not affected (FIG. 6).

M. truncatula = assay: Lateral root formation of plants grown in magenta jars with peptide; format: in vivo, Medicago truncatula; conditions: 1 μM peptide, 5 mM KNO3, two weeks, P<0.05
Experimental: (§2) M. truncatula, M. sativa, Subterranean Clover Cultivar Woogenellup and white clover (Trifolium repens) plants were grown in 0.4% agar-containing magenta jars supplemented with F media with or without peptides for two weeks. The media contained 5 mM KNO3. MtRAR1 peptide: FQ(P)TTPGNS(P)GVGH where (P) is hydroxyproline. Students' t-test *: P<0.05; **; P<0.01; ***: P<0.001; N>12. Error bars represent SE.
(§3) To further validate and exemplify the RAR technology, we have examined RAR peptide addition of roots of various plant species.

Nitrogenase activity = assay: Acetylene reduction assay (nitrogenase activity) of plants inoculated with S. meliloti WSM1022; format: in vivo, Medicago truncatula; conditions: 1 μM peptide
Experimental: as §1

[3] = tested on: white clover (Trifolium repens); assay: Lateral root formation of plants grown in magenta jars with peptide; format: in vivo; conditions: 1 μM peptide
Experimental: as §2
The plants were grown in 0.4% agar-containing magenta jars supplemented with F medium with on without peptides for two weeks. The media contained 5 mM KNO3. MtRAR1 peptide: […] where (P) is hydroxyproline.
as §3

[4] = tested on: Subterranean Clover Cultivar Woogenellup; assay: as above; format: in vivo; conditions: 1 μM peptide
Experimental: as §2
The plants were grows in 0.4% agar-containing magenta jars supplemented with F media with or without peptides for two weeks. The media contained 5 mM KNO3. MtRAR1 peptide: FQ(P)TTPGNS(P)GVGH where (P) is hydroxyproline.
as §3

Lucerne (M. sativa) = assay: as above; format: in vivo; conditions: 1 μM peptide
Experimental: as §2
The plants were grown in 0.4% agar-containing magenta jars supplemented with F media with or without peptides for two weeks. The medium contained 5 mM KNO3. MtRAR1 peptide: FQ(P)TTPGNS(P)GVGH where (P) is hydroxyproline.
as §3

[5] = tested on: Arabidopsis thaliana WT Col plants; assay: RAR bioactivity in Arabidopsis at different concentrations; format: in vivo
Experimental: To investigate the effect of different modifications on peptide bioactivity, several peptides were assayed for activity at different concentrations (Table 4), WT Col plants were grown vertically on ½ MS plates with 1% phytagel and containing varying concentration of RAR peptide ranging from 10^−6 M to 10^−12 M or no peptide. Plates were imaged at 12 days.

[6] = tested on: Arabidopsis thaliana WT Col plants; assay: Time course of RAR action in Arabidopsis over 12 days; format: in vivo; conditions: 1 μM
Experimental: To see how RAR was exerting its effect on PR growth and lateral root emergence and growth, a time course was performed over 12 days, WT Col plants were grown vertically on ½ MS with 1% phytagel and 1 μM RAR6 hyP or no peptide, with 16 hr days at 22° C. Plates were scanned every day for 12 days.

[7] = tested on: Arabidopsis thaliana WT Col plants; assay: Rescue: transfer of Arabidopsis plants between RAR and no RAR plates; format: in vivo
Experimental: To investigate whether the effect of RAR peptide addition could be released, WT Col plants were grown vertically for 6 days on […] plates with 1% phytagel. Plants were transferred from plates containing no RAR or 1 μM RAR6 hyP peptide (pre-treatment) to plates containing no RAR or 1 μM RAR6 hyP peptide as specified where they were left to grow for a further 6 days before being analysed.

rice seedlings = assay: Liquid culture (half strength MS), root formation of rice seedlings; format: in vivo; conditions: 1 μM peptide
Experimental: The plants were grown in liquid media containing half strength MS media with or without peptides for two weeks. Monocot RAR peptide: DTRATDFGHS(P)GAGH where (P) is hydroxyproline. Students' t-test, *: P<0.05; N>6. Error bars represent SE.
The plants were grown in liquid media containing half strength MS media with or without peptides for two weeks. Monocot RAR peptide: DTRATDPGHS(P)GAGH where (P) is hydroxyproline:
Primary root length was also affected (FIG. 23).

soybean seedlings = assay: Liquid culture, root formation of soybean seedlings; format: in vivo; conditions: 1 μM peptide
Experimental: The plants were grown in liquid supplemented with F medium with or without peptides for two weeks. The medium contained 5 mM KNO3. GmRAR peptide: NFR(P)TAPGHS(P)GVGH where (P) is hydroxyproline. Students' t-test, **; P<0.01; N>6. Error bars represent SE.
The plants were grown in liquid supplemented with F medium with or without peptides for two weeks. The media contained 5 mM KNO3. GmRAR peptide: […] where (P) is hydroxyproline.
Primary root length was also affected (FIG. 21).

[8] = range tested 10^−6 M to 10^−12 M, 12 days

“AFQ(P)TTPANS(P)GVGH [MtRAR1 Domain 1 with G−>A transition]” was tested, and the “Inhibition of lateral root emergence (structure activity relationship of peptide variants)” value (M. truncatula roots; compared with MtRAR1 peptide) was “greatly attenuated” and the Nodule numbers ([1]; 1 μM peptide, 5 mM and 25 mM KNO3, trend = significant increase as with MtRAR1 over-expression) was “non-functional”.

In the case of “AFQ[Hyp]TTPGNS[Hyp]GVGH [MtRAR1 peptide]”, the Primary root length [2] was “not affected”, the “Number of lateral roots” value ([2]; 5 mM KNO3, two weeks, P<0.05) was “reduction” and the Lateral root emergence (M. truncatula) was “significantly inhibited”. The “Increase in nitrogenase activity” value (Nitrogenase activity; 0 mM KNO3, 2 week post inoculation) was 35%, the “Increase in nitrogenase activity” value (Nitrogenase activity; 5 mM KNO3, 2 week post inoculation) was 200% and the “CCP (bump) site formation” value [3] was “formed CCP”. For the same substance, the Lateral root emergence ([3]; 5 mM KNO3, two weeks, P<0.05) was “significantly inhibited”, the Main root growth (M. truncatula roots; 10^−6 M peptide) was “significantly inhibited” and the Lateral root formation (M. truncatula roots; A17 plants, F medium containing 25 mM KNO3, 10^−6 M peptide) was “significantly reduced”. The “Concentration for dose-dependent inhibition of lateral root emergence” value (M. truncatula roots; in vivo) was “greater than 10^−7 M”, the “Periodic bump (CCP site) formation” value (M. truncatula roots) was “Maximum CCP site generation; also recorded: Periodic bumps” and the “CCP (bump) site formation” value [4] was “formed CCP”. For the same substance, the Lateral root emergence ([4]; 5 mM KNO3, two weeks, P<0.05) was “significantly inhibited”, the “Numbers of pink functional nodules” value ([1]; 1 μM peptide, 5 mM and 25 mM KNO3, compared to controls) was “significantly higher numbers” and the “Nodule development (nodule sections)” value ([1]; 0.5 mM or 25 mM KNO3, three weeks, versus untreated plants) was “accelerated nodule development”. The Nodule size ([1]; all across the nitrate regimen, versus no peptide or G->A peptide) was “much larger”, the “CCP (bump) site formation” value (Lucerne (M. sativa)) was “formed CCP” and the Lateral root emergence (Lucerne (M. sativa); 5 mM KNO3, two weeks, P<0.05) was “significantly inhibited”.

AFR[Hyp]TAPGHS[Hyp]GVGH [MhRAR2] was tested, and the “Periodic bump (CCP site) formation” value (M. truncatula roots) was “Maximum CCP site generation; also recorded: Periodic bumps”.

For “D F R hyP T (p-T) P G H S hyP G I G H [RAR6 phos]”, the “Activity relative to the non-phosphorylated RAR6 peptide” value ([5]; in vivo) was 1000 × and the “Concentration range at which the peptide is active (in words)” value [5, 8] was “picomolar”.

In the case of “D F R hyP T T P G H S hyP G I G H [RAR6 hyP]”, the “PR length, treated versus untreated” value ([6]; 2 days post imbibing) was “no significant difference”, the “PR length, treated versus untreated” value ([6]; from day 3 onwards) was “significantly shorter” and the “Number of lateral roots, treated versus untreated” value ([6]; scanned every day for 12 days) was “not significantly different until day 8”. The “Primary root length of plants pre-treated with RAR and transferred to no RAR versus plants exposed to RAR continuously” value ([7]; 1 μM, 6 + 6 days, p<0.05) was “significantly higher” and the “Number of lateral roots after transfer to no RAR, by pre-treatment” value ([7]; 6 days pre-treatment with 1 μM or no RAR, then 6 days no RAR) was “the same”.

In the case of “D F V P T S P G N S P G V G H (DFVPTSPGNSPGVGH) [RAR5 no HyP]”, the “Concentration at which the peptide is active” value [5, 8] was 10^−9 M.

For “D F V hyP T (p-S) P G N S hyP G V G H [RAR5 phos]”, the “Effect of phosphorylation on activity” value ([5]; Arabidopsis RAR5) was “enhances activity”.

With “D F V hyP T S P G N S hyP G V G H [RAR5 hyP]” the “Concentration at which the peptide is active” value [5, 8] was 10^−8 M.

For DTRATDPGHS(P)GAGH [Monocot RAR peptide], the Primary root length (rice seedlings) was “affected” and the Number of roots (rice seedlings; liquid half strength MS, two weeks, P<0.05) was “reduction”.

NFR(P)TAPGHS(P)GVGH [GmRAR peptide] was tested, and the Primary root length (soybean seedlings) was “affected” and the Number of roots (soybean seedlings; liquid F medium, 5 mM KNO3, two weeks, P<0.05) was “reduction”.
